According to patent US20230080252A1, “ANTICANCER ADJUVANT AND PHARMACEUTICAL COMPOSITION FOR TREATING ANTICANCER-AGENT-RESISTANT CANCER, AND KIT COMPRISING SAME” (DONG-A UNIVERSITY RESEARCH FOUNDATION FOR INDUSTRY-ACADEMY …, priority 2020, published 2023):

What was measured:
[1] = tested on: A549 (human lung carcinoma) cells; assay: DNA fiber analysis of replication forks; type: cell-based; settings: unperturbed A549 cells; IdU and CldU 20 min each; control 0.36 μm/min
Description: The ratios of CldU to IdU were calculated from active replication forks. […] Single-strand DNA (ssDNA; blue) was labelled with ssDNA-specific antibodies. Percentages of stalled forks were calculated by dividing the number of red-only tracts (stalled forks) by the total number of red-only plus red-green tracts (stalled and restarted forks, respectively). Analyses were performed on a minimum of 200 individual DNA fibers. […] The recovery of S phase progression is presented as a percentage of EdU positive cells at 6 h after the release from HU treatment. In each experiment, >100 cells were randomly chosen to determine the percentage of EdU-positive cells. […] The ratio of CldU to IdU in terms of length was calculated from active replication forks (red-green). […]
(1) ATR-CHK1 pathway accounts for the central replication stress responses and once activated it helps the cell to survive and faithfully complete DNA replication under stress. Having shown that TTP is found to be implicated in the ATR-CHK1 activation, as in Example 1 above, we decided to examine the effect of TTP on the replication fork stability using DNA fiber analysis, the clearest read-out of replication stress which relies on the incorporation of nucleotide analogues. […]
(3) We next examined the involvement of TTP in stalled fork protection. […] We then analyzed the relative shortening of CldU fiber as indicative of fork degradation. […]

[2] = tested on: p-CHK1 (ATR-CHK1 pathway); assay: CHK1 phosphorylation (immunoblot / immunostaining) after UV or HU; type: cell-based, human; settings: inhibitor added after UV irradiation, fixed after 2 hours, anti-p-CHK1 immunostaining
From the text: FIG. 1D is a quantification of the percentage of p-CHK1-positive cells from UV-treated data of FIG. 1C. […] In each experiment, >100 cells were randomly chosen to determine the percentage of p-CHK1-positive cells.
The two DNA damage response kinases ATR and ATM play key roles in the protection of genomic integrity from genotoxic stress by sensing a single-strand break and DSB (Double strand break), respectively. To identify the functions of TTP in the DNA damage response, we first analyzed the phosphorylation levels of CHK1 (p-CHK1) and CHK2 (p-CHK2) as readouts of ATR and ATM activity, respectively.
Then, we treated cells with HU, another CHK1 phosphorylation-triggering agent which depletes the deoxynucleoside triphosphate pool, thus inducing the RSR (Replication Stress Response).

| Compound | average fork velocity [1] [μm/min] | residual p-CHK1 signal in TTP-deficient cells [2] |
| --- | --- | --- |
| siClaspin: siRNA (SEQ ID NO: 20) introduced into cells to make Claspin-deficient cells (AACCUUGCUUAGAGCUGAGUCUUCA; listed as RNA, chemistry not given here) | 0.22 | – |
| CNCc1ccc(-c2cc(-c3nc(-c4ccc(S(=O)(=O)C(C)C)cc4)cnc3N)on2)cc1 [VE-822] | – | vanished |
